In patent publication US10450297B2, “Sulfonyl amide derivatives for the treatment of abnormal cell growth” (Pfizer, Inc., priority 2007, dated 2019):

Biological target: FAK kinase (catalytic construct FAK(410-689)) (Homo sapiens (Human), UniProt Q05397)
Assay: FAKcd kinase ELISA (inhibition of poly-glu-tyr phosphorylation by FAK(410-689))
Assay type: biochemical
Details: 50 μM final ATP

Sequence of FAK kinase (catalytic construct FAK(410-689)) (Q05397 410-689): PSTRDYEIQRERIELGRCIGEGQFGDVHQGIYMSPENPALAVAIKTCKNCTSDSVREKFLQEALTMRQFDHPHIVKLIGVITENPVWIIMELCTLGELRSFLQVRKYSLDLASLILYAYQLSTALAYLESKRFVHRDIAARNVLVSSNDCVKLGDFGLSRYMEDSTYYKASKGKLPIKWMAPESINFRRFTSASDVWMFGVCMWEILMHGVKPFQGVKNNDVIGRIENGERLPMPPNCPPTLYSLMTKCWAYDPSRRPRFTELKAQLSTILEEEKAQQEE

Row | Structure (SMILES) | IC50 [nM]
1 | CN(c1ncccc1CNc1nc(Nc2ccc(C(=O)N3CC[C@H](F)C3)cc2)ncc1C(F)(F)F)S(C)(=O)=O [Compound 236, N-{3-[({2-[(4-{[(3S)-3-fluoropyrrolidin-1-yl]carbonyl}phenyl)amino]-5-(trifluoromethyl)pyrimidin-4-yl}amino)methyl]pyridin-2-yl}-N-methylmethane-sulfonamide] | 1.41
2 | CN(c1cccc(CNc2nc(Nc3ccc(C(N)=O)nc3)ncc2C(F)(F)F)c1)S(C)(=O)=O [Compound 376, 5-{[4-({3-[methyl(methylsulfonyl)amino]benzyl}amino)-5-(trifluoromethyl)pyrimidin-2-yl]amino}pyridine-2-carboxamide] | 8.15
3 | COCCNC(=O)c1ccc(Nc2ncc(C(F)(F)F)c(NCc3cccnc3N(C)S(C)(=O)=O)n2)cc1 [Compound 276, N-(2-methoxyethyl)-4-({4-[({2-[methyl(methylsulfonyl)amino]pyridin-3-yl}methyl)amino]-5-(trifluoromethyl)pyrimidin-2-yl}amino)benzamide] | 0.6
4 | CCCN(CCO)C(=O)c1ccc(Nc2ncc(C(F)(F)F)c(NCc3cccnc3N(C)S(C)(=O)=O)n2)cc1 [Compound 269, N-(2-hydroxyethyl)-4-({4-[({2-[methyl(methylsulfonyl)amino]pyridin-3-yl}methyl)amino]-5-(trifluoromethyl)pyrimidin-2-yl}amino)-N-propylbenzamide] | 8.69
5 | CN(c1ncccc1CNc1nc(Nc2cccc(C(=O)NCc3ccccc3)c2)ncc1C(F)(F)F)S(C)(=O)=O [Compound 191, N-benzyl-3-({4-[({2-[methyl(methylsulfonyl)amino]pyridin-3-yl}methyl)amino]-5-(trifluoromethyl)pyrimidin-2-yl}amino)benzamide] | 5.5
6 | Cc1cc(C(N)=O)ccc1Nc1ncc(C(F)(F)F)c(NCc2cccc(N(C)S(C)(=O)=O)c2)n1 [Compound 346, 3-methyl-4-{[4-({3-[methyl(methylsulfonyl)amino]benzyl}amino)-5-(trifluoromethyl)pyrimidin-2-yl]amino}benzamide] | 0.886
7 | CN(C)CCN(C)C(=O)c1ccc(Nc2ncc(C(F)(F)F)c(NCc3cccnc3N(C)S(C)(=O)=O)n2)cc1 [Compound 274, N-[2-(dimethylamino)ethyl]-N-methyl-4-({4-[({2-[methyl(methylsulfonyl)amino]pyridin-3-yl}methyl)amino]-5-(trifluoromethyl)pyrimidin-2-yl}amino)benzamide] | 4.66
8 | CCCC1(NC(=O)c2cccc(Nc3ncc(C(F)(F)F)c(NCc4cccnc4N(C)S(C)(=O)=O)n3)c2)CC1 [Compound 209, 3-({4-[({2-[methyl(methylsulfonyl)amino]pyridin-3-yl}methyl)amino]-5-(trifluoromethyl)pyrimidin-2-yl}amino)-N-(1-propylcyclopropyl)benzamide] | 3.68
9 | CN(c1ncccc1CNc1nc(Nc2ccc(C(C)(C)O)cc2)ncc1C(F)(F)F)S(C)(=O)=O [Compound 323, N-[3-({[2-{[4-(1-hydroxy-1-methylethyl)phenyl]amino}-5-(trifluoromethyl)pyrimidin-4-yl]amino}methyl)pyridin-2-yl]-N-methylmethane-sulfonamide] | 1.5
10 | CN(c1ncccc1CNc1nc(Nc2cccc(C(=O)N3CCCC3CO)c2)ncc1C(F)(F)F)S(C)(=O)=O (centres unmarked) [Compound 147, N-{3-[({2-[(3-{[2-(hydroxymethyl)pyrrolidin-1-yl]carbonyl}phenyl)amino]-5-(trifluoromethyl)pyrimidin-4-yl}amino)methyl]pyridin-2-yl}-N-methylmethane-sulfonamide] | 4.74
11 | Cc1cccc(NS(C)(=O)=O)c1CNc1nc(Nc2ccc(-c3nnn[nH]3)cc2)ncc1C(F)(F)F [Compound 287, N-[3-methyl-2-({[2-{[4-(1H-tetrazol-5-yl)phenyl]amino}-5-(trifluoromethyl)pyrimidin-4-yl]amino}methyl)phenyl]methanesulfonamide] | 1.95
